Measurements: patent US20230014352A1, “INHALED STATINS AS BRONCHODILATORS TO IMPROVE LUNG FUNCTION IN RESPIRATORY DISEASES” (priority 2019, published 2023)
Entries after “also recorded” stand apart in the source; their conditions may differ.

Legend:
[1] = tested on: primary human airway smooth muscle (ASM) cells; assay: Contractile force screening (CFS), basal ASM cell contraction (strain energy); assay type: cell-based; details: donors D1-D6, FIG. 11A
[2] = tested on: ASM cells; assay: RealTime-Glo Annexin V Apoptosis and Necrosis assay; assay type: cell-based, human
Method: Lack of apoptosis: Some studies have shown that statins at high enough doses can reduce the viability of vascular smooth muscle cells, epithelial cells, and endothelial cells (S. Ghavami et al., Biochim Biophys Acta (2014) 1843(7):1259-71; T. P. Miettinen et al., Cell Rep (2015) 13(11):2610-20).
RealTime-Glo™ Annexin V Apoptosis and Necrosis assay was performed by growing ASM cells on 96-well white cell culture plate according to the manufacturer's instructions (Promega Inc). […] In this real-time annexin V binding assay, the luminescence signal was detected for apoptosis and necrosis was detected with a fluorescence signal by using a SpectraMax® plate reader. […] (20 μg/mL) was used as a positive control (FIG. 2).

[3] = tested on: mouse PCLS; assay: Viability of mouse PCLS (lung tissue toxicity); details: FIG. 10F
[4] = tested on: MLC-2; assay: MLC-2 (total and phosphorylated) expression, western blot; assay type: cell-based, human; details: 1 μM, 24 hours
Method: (§1) Antibodies for western blot analysis against total and phospho-MLC2 were obtained from Santa Cruz Biotechnology and Cell Signaling Technology, respectively. Antibodies for pROCK1, total ROCK1, and GAPDH were obtained from Abcam. Pitavastatin was obtained from Santa Cruz Biotechnology.
(§2) Non-asthmatic primary human ASM cells were treated with either vehicle or pitavastatin (1 μM) for 24 hours. Cells were then immuno-stained for F-actin expression. […] Cell lysates were analyzed by western blot for total ROCK-1, total ROCK-2, total MLC-2, and phosphorylated MLC-2. As shown in FIGS. 15C and 15D, pitavastatin reduced the total expression of ROCK-1, ROCK-2, and MLC-2 (total and phosphorylated).

[5] = tested on: eotaxin-3; assay: Cytokine mixture (CM)-induced eotaxin-3 expression in ASM cells, dexamethasone with or without pitavastatin; assay type: cell-based, human; details: pitavastatin 0.1, 0.5 or 1 μM added to dexamethasone 0.1, 1 or 5 μM, 60 hrs; CM 15 hrs; FIG. 18
Method: Primary human airway smooth muscle cells were cultured to confluence in serum-containing media (10% FBS), then pre-treated with dexamethasone (“Dex”) at 0.1, 1, or 5 μM, with or without pitavastatin (“Pit”) at 0.1, 0.5, or 1 μM concentrations for 60 hrs. The ASM cells were then exposed to a mixture of cytokines ([…] IL-13, IL-17, and TNFα, “CM”) for 15 hrs, and the expression of eotaxin-3 was measured. “NT” means no treatment.

[6] = tested on: ASM cells; assay: Simulated deep breath (stretch-unstretch), cell mapping rheometry and CFS; assay type: cell-based, human; details: 1 μM, 24 hrs; for force recovery after single stretch-unstretch maneuver (stretch-induced ASM force relaxation): 10% magnitude, 4-sec stretch, recovery over 180 seconds, FIG. 12B
Method: Well-defined biaxial stretch (4 sec duration, 10% magnitude) was imposed using the method of cell mapping rheometry. The strain energy from each ASM force map was computed as a metric of average cellular contraction, and reported as fold changes to the pre-stretch baseline value.
Normal ASM was treated with pitavastatin (1 μM, 24 hrs, n=7), isoproterenol (10 μM, 30 min, n=6) or vehicle (n=7), and examined by CFS as described above. […] Shown are contraction values normalized to the untreated control group. […] The contraction force gradually recovered over 180 seconds. […] All data are reported as mean and standard error of the mean (SEM).

[7] = tested on: ROCK-1; assay: Total ROCK-1 expression, western blot; assay type: cell-based, human; details: 1 μM, 24 hrs, FIG. 15C
Method: as §1, §2

[8] = tested on: F-actin; assay: F-actin expression, immunostaining; assay type: cell-based, human; details: 24 hrs; for basal F-actin expression: 1 μM, FIG. 15A/15B
Method: as §2
Non-asthmatic primary human ASM cells were co-treated with 1 μM pitavastatin (Pit), Pit with 10 μM GGPP, or Pit with 10 μM GGPP plus 100 μM MA for 24 hrs.

[9] = tested on: myosin light chain-2 (MLC-2) phosphorylation; assay: Thrombin-induced MLC-2 phosphorylation, western blot; assay type: cell-based, human; details: 1 or 10 μM, 24 hrs; thrombin 2 U, 30 min; FIG. 5B
Method: as §1
Human ASM cells were treated with pitavastatin (1 or 10 μM) for 24 hours, then treated with thrombin (2 U, 30 min). As depicted in FIG. 5B, pitavastatin (1 or 10 μM) inhibited thrombin-induced MLC2 phosphorylation.

[10] = tested on: human ASM cells, histamine-induced contraction; assay: Contractile force screening, histamine-induced ASM contraction; assay type: cell-based
Method: Contractile Force Screening: Human ASM cells were grown to confluence in 96-well plates on custom NuSil™ 8100 elastic substrates (Avantor, Inc., Radnor, Pa.) (R. Rokhzan et al., Lab Invest (2019) 99(1):138-45). Fluorescent beads (diameter ˜400 nm) were embedded in the substrate surface to enable traction force calculations based on their displacements. To measure fractions, an inverted epi-fluorescence microscope (DMI 6000B, Leica Inc., Germany) equipped with a heated chamber (37° C.), a monochrome camera (Leica DFC365 FX), and a motorized stage was used. Spatial images were recorded of substrate-embedded fluorescent beads at 10× magnification. Based on the bead displacements (resolution ˜15 μm) relative to a cell-free model, together with knowledge of substrate stiffness and thickness, fractions were computed using the approach of Fourier Transform Traction Cytometry (B. Yeganeh et al., Pharmacol Ther (2014) 143(1):87-110), modified to the case of cell monolayers (E. J. Whalen et al., Cell (2007) 129(3):511-22). From each fraction map, the root-mean-squared traction (RMST) value and strain energy were calculated and reported as a measure of normal contraction in the monolayer. On a well-by-well basis, the ratio of the strain energy after vs. before treatment was computed, and all values of a given treatment group were normalized to the mean of each treatment group.
In complete media, 0.08 μM pitavastatin is sufficient to inhibit histamine-mediated ASM contraction (FIG. 4A).

[11] = tested on: Rho kinase (ROCK-1) phosphorylation; assay: Histamine-induced ROCK-1 phosphorylation, western blot; assay type: cell-based, human; details: 24 hrs; for inhibitory effect on ROCK-1 phosphorylation with mevalonate co-treatment: 1 μM with MA 200 μM
Method: as §1
Human ASM cells were treated with pitavastatin (1 μM) with or without mevalonate (MA, 200 μM) for 24 hours, then treated with histamine (10 μM) for 5 minutes.

## O=C(O)C[C@H](O)C[C@H](O)/C=C/c1c(C2CC2)nc2ccccc2c1-c1ccc(F)cc1 [pitavastatin]
[1]
  ASM contraction in asthmatic and non-asthmatic donor cells: dose-dependently inhibited ASM contraction; also recorded: inhibited ASM contraction dose-dependently
[2]
  apoptosis and necrosis (cell death): no evidence of apoptosis or cell death
  cellular toxicity: did not demonstrate any
[3]
  lung tissue toxicity: did not demonstrate any
[4]
  expression of MLC-2 (total and phosphorylated): reduced
[5]
  eotaxin-3 expression: Significant reductions in eotaxin-3 expression
[6]; FIG. 12A
  basal ASM contraction compared to untreated controls: significantly inhibited basal ASM contraction
[6]
  force recovery after single stretch-unstretch maneuver (stretch-induced ASM force relaxation): significantly inhibited
[6]; listed as Pitavastatin
  force recovery after single stretch-unstretch maneuver (stretch-induced ASM force relaxation): augmented stretch-induced ASM force relaxation
[7]
  total (basal) expression of ROCK-1: reduced
[8]; 1 μM Pit with 10 μM GGPP, or with 10 μM GGPP and 100 μM MA, FIG. 15B
  reductions of F-actin expression and ASM contraction with GGPP and MA co-treatment: abrogated
[8]
  basal F-actin expression: significantly reduced
[8]; listed as Pit
  basal F-actin expression: reduced F-actin expression; also recorded: significantly reduced
[9]
  thrombin-induced MLC2 phosphorylation: inhibits; also recorded: reduced MLC-2 phosphorylation
[10]
  potency relative to SA in prevention of histamine-induced ASM contraction: at least 5 times
[10]; 0.4 μM statin, 24 hrs
  histamine-induced ASM contraction: renders histamine ineffective at inducing ASM contraction
[10]; 0.4 μM statin, 24 hrs, listed as Pit
  histamine-induced ASM contraction: inhibits histamine-induced ASM contraction
[10]; complete media, FIG. 4A
  concentration sufficient to inhibit histamine-mediated ASM contraction: 0.08 µM
[10]; pitavastatin, simvastatin, atorvastatin
  potency ranking on histamine-induced ASM contraction: most potent of the three drugs
[10]; pre-treatment 24 hrs, histamine 10 μM, FIG. 4A/4B
  histamine-induced ASM contraction: significantly reduced histamine-induced ASM contraction; also recorded: potently and significantly inhibited
[10]; serum starved media
  concentration providing a similar extent of protection from histamine-induced contraction: 0.4 µM
[11]
  inhibitory effect on ROCK-1 phosphorylation with mevalonate co-treatment: abrogated
[11]; listed as Pit
  inhibitory effect on ROCK-1 phosphorylation with mevalonate co-treatment: abrogates
[11]; 1 μM, histamine 10 μM, 5 min, FIG. 5A
  histamine-induced ROCK1 phosphorylation: significantly reduced; also recorded: inhibits
